How the values were obtained:
panelists = assay: sweet enhancement taste tests (paired comparison, panelists choose the sweeter sample); assay type: in vivo, human; conditions: for HFCS and sucrose sweet enhancement effect: taste tests, pH 2.8, concentration far below its sweetness threshold
Method: Test samples containing either a sweetener (sucrose or high-fructose corn syrup (HFCS)) alone or in combination with a test compound were presented in pairs to a group of panelists who were asked to determine which of the samples was sweeter. Subjects refrained from eating or drinking (except water) for at least 1 hour prior to the test. Subjects rinsed with water several times to clean the mouth. The samples within a paired comparison test were presented in a randomized, counterbalanced order. Panelists had up to a 1 minute delay between taste tests to clear the mouth of any tastes. Binomial probability tables were used to determine the probability of the correct number of responses occurring for each test at alpha-0.05.

[1] = target: T1, hT1R2/T1R3 taste receptor (Homo sapiens, UniProt Q7RTX0+Q8TE23); assay: agonist activity against the hT1R2/T1R3 taste receptor (sweet receptor based assay); assay type: cell-based; conditions: agonist activity, hT1R2/T1R3; read-out: Sweet EC50
T1 sequence (Q8TE23 20-839): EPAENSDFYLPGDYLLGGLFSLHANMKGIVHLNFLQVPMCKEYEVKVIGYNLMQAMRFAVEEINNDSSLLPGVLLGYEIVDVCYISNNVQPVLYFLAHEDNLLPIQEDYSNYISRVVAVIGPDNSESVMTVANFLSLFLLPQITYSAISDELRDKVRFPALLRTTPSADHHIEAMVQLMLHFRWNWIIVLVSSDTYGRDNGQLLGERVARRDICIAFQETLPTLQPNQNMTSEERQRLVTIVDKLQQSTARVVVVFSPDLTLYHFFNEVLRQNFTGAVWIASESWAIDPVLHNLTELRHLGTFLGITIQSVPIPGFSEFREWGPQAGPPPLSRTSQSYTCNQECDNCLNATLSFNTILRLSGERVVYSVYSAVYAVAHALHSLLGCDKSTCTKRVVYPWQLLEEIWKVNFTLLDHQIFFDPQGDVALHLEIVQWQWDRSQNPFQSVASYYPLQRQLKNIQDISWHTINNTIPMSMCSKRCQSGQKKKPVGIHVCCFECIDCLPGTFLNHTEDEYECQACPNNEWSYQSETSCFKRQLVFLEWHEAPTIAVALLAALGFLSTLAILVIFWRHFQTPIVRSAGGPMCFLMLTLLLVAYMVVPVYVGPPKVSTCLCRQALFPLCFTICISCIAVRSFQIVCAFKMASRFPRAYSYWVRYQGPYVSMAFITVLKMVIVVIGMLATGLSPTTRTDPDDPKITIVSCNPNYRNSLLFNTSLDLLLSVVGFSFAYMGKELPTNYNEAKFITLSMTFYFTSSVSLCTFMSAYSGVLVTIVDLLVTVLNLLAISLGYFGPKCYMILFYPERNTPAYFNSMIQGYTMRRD
T1 sequence (Q7RTX0 21-852): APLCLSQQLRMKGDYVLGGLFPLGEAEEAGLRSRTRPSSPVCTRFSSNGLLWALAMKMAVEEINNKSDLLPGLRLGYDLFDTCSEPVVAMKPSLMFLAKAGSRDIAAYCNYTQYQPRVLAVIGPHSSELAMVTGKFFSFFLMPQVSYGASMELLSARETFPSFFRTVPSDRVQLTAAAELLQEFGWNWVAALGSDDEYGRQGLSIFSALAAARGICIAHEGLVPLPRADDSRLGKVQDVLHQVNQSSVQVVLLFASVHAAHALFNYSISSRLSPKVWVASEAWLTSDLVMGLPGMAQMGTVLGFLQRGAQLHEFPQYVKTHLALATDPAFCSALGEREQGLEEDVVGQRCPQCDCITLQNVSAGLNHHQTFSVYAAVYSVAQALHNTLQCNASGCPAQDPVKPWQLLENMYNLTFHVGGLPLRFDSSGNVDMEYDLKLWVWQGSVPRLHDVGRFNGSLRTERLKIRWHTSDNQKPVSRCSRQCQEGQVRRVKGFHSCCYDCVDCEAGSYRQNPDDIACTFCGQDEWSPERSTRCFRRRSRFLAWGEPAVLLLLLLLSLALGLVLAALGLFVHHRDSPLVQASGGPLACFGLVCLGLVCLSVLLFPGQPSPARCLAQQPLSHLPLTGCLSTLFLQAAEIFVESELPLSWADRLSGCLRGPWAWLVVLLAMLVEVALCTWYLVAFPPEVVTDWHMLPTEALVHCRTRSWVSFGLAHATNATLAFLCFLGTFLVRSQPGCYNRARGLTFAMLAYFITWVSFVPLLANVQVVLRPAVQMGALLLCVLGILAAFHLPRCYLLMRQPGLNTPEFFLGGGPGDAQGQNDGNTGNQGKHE
Method: Compounds described in this application show moderate to potent agonist effect on the sweet receptor based assay. Potencies (EC50 values, e.g. see Tables 1-3) for agonist activity were measured against the hT1R2/T1R3 taste receptor. FIG. 1 exemplifies the data generated during the screening to determine EC50 values.

[2] = Study 1: 10 ppm Compound 78 vs 1.5% Sucrose, pH 2.8
[3] = Study 2: 7 ppm Compound 78 + 6% sucrose vs 8% Sucrose

EC50 [1] | Structure (SMILES) | Results (which of the samples was sweeter) (panelists; [2]) | Results (which of the samples was sweeter) (panelists; [3]) | Results (which of the samples was sweeter) (panelists; Study 3: 9 ppm Compound 78 + 6% HFCS vs 8% HFCS) | HFCS and sucrose sweet enhancement effect (panelists) | HFCS and sucrose sweet enhancement effect (panelists; listed as compound 78) | sweetness compared with 1.5% sucrose (panelists; test #1, 10 ppm, pH 2.8) | sweetness compared with 8% sucrose (panelists; test #2, 10 ppm of compound 78+6% sucrose)
 | OC[C@H]1O[C@@](CO)(O[C@H]2O[C@H](CO)[C@@H](O)[C@H](O)[C@H]2O)[C@@H](O)[C@@H]1O [Sucrose, sucrose, reference compound] | 42 | 24 |  |  |  |  | 
1300 nM | COCc1cccc(C2CCN(C(COC)C(=O)NCC(C)C)CC2)c1F (stereo not shown) [Compound 78, 2-(4-(2-fluoro-3-(methoxymethyl)phenyl)piperidin-1-yl)-N-isobutyl-3-methoxypropanamide] | 9 | 21 | 22 | remarkable HFCS and Sucrose sweet enhancement effect | significant enhancement | significantly less sweet | no significant difference in sweetness

From US20250280861A1, “SWEETENER COMPOSITIONS” (Firmenich Incorporated, priority 2022, published 2025)
